Data as given in ChEMBL document CHEMBL1177697, “Evolution of poly(ADP-ribose) polymerase-1 (PARP-1) inhibitors. From concept to clinic” (J Med Chem, 2010).

Experiments:
Rattus norvegicus [1] = experiment: Neuroprotective effect in rat transient MCAO model assessed as reduction in infarct volume at 10 mg/kg/hr, iv administered prior to reperfusion; set-up: scale not given: the % may be the effect or the level left
Rattus norvegicus [2] = experiment: Cardioprotective effect in rat ischemia/reperfusion-induced myocardial infarction model assessed as reduction in infarct size at 20 mg/kg, iv administered 10 mins prior to reperfusion; set-up: scale not given: the % may be the effect or the level left
Homo sapiens = experiment: Toxicity in iv infused human patients assessed as maximum tolerated dose; assay type: organism-based; settings: in vivo
[3] = Biodistribution in human patient urine; assay type: ADME, organism-based; settings: in vivo
[4] = Half life in iv dosed human patient; assay type: ADME, organism-based; settings: in vivo
L1210 = experiment: Cytotoxicity against mouse L1210 cells; assay type: functional
[5] = biological target: Poly [ADP-ribose] polymerase 2 (Homo sapiens, UniProt Q9UGN5); experiment: Inhibition of PARP2
Poly [ADP-ribose] polymerase 2, sequence (Q9UGN5 whole entry): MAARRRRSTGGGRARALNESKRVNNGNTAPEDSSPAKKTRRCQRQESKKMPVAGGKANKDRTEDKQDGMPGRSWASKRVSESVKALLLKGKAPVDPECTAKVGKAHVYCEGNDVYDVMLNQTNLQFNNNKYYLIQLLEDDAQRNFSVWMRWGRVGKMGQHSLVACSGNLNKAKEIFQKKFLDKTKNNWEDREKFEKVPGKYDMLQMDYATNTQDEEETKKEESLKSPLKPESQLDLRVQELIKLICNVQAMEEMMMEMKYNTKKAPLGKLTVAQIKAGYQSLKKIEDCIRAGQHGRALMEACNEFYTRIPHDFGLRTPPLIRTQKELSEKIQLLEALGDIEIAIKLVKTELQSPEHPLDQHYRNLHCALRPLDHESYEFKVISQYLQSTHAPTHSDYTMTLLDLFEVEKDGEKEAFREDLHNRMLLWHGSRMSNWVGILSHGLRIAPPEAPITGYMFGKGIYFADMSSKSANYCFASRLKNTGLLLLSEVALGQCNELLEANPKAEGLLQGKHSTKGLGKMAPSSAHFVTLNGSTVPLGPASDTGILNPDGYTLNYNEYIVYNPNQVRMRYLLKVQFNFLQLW

LoVo = experiment: Potentiation of TMZ-induced antiproliferation against human LoVo cells at 0.4 uM; assay type: functional
[6] = Half life in human patient at 200 to 800 mg, iv; assay type: ADME, organism-based; settings: in vivo
[7] = biological target: T1, Poly [ADP-ribose] polymerase 1 (Homo sapiens, UniProt P09874)
T1 sequence (P09874 whole entry, the tested form may be a part): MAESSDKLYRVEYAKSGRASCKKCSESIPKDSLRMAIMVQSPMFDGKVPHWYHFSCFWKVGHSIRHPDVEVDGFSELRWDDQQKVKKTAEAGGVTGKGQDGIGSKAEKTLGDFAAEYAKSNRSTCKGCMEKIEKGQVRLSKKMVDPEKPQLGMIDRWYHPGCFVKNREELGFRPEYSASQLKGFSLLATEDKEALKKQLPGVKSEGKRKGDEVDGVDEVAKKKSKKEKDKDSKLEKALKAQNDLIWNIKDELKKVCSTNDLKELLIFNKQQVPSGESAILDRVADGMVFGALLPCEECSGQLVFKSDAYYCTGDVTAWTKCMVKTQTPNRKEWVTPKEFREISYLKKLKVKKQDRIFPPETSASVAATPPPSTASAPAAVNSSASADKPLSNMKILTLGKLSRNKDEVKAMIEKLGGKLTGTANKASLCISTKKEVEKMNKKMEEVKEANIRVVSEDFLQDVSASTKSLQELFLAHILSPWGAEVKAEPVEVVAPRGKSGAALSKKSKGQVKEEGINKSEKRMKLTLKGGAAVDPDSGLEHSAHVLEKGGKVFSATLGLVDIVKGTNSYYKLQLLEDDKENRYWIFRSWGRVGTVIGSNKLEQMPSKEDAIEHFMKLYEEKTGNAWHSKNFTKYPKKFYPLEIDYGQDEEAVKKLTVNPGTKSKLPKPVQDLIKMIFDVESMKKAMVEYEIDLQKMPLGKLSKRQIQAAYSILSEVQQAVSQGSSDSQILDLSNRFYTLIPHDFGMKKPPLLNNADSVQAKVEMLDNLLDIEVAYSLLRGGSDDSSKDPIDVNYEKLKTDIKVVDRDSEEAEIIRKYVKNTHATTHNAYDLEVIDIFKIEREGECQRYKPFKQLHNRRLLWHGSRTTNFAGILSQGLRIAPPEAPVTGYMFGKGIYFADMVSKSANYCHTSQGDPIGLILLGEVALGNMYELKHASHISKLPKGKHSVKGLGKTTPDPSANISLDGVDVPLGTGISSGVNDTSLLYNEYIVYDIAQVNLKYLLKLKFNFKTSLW

Rattus norvegicus [8] = experiment: Cardioprotective effect in rat cardiac ischemia model assessed as reduction in infarct size at 80 mg/kg, iv administered prior to reperfusion; assay type: functional, Heart; set-up: scale not given: the % may be the effect or the level left
Rattus norvegicus [9] = experiment: Neuroprotective effect in rat transient MCAO model assessed as reduction in infarct volume at 40 mg/kg, iv administered prior to reperfusion; set-up: scale not given: the % may be the effect or the level left
[10] = Selectivity for […]
Rattus norvegicus [11] = experiment: Cardioprotective effect in rat ischemia/reperfusion-induced myocardial infarction model assessed as reduction in infarct size at 3 mg/kg/hr, iv administered prior to reperfusion; assay type: functional, Myocardium; set-up: scale not given: the % may be the effect or the level left
Rattus norvegicus [12] = experiment: Cardioprotective effect in rat ischemia/reperfusion-induced myocardial infarction model assessed as reduction in infarct size at 3 mg/kg/hr, iv administered prior to reperfusion measured after 2 hrs; assay type: functional, Myocardium; set-up: scale not given: the % may be the effect or the level left
Rattus norvegicus [13] = experiment: Cardioprotective effect in rat ischemia/reperfusion-induced myocardial infarction model assessed as reduction in infarct size at 3 mg/kg/hr, iv administered prior to reperfusion measured after 4 hrs; assay type: functional, Myocardium; set-up: scale not given: the % may be the effect or the level left
in vivo = settings: rat, brain/plasma, 10 mg/kg
Description: Ratio of drug level in brain to plasma in rat at 10 mg/kg/hr after 6 hrs

Liver microsomes = experiment: Intrinsic clearance in human liver microsome; assay type: ADME
[14] = Ratio of drug level in brain to plasma in rat; assay type: ADME
[15] = Half life in human patient at 2.8 mg/kg, iv; assay type: ADME, organism-based; set-up: dose 2.8 mg/kg, route intravenous; settings: in vivo
[16] = biological target: T1, Poly [ADP-ribose] polymerase 1; experiment: Inhibition of PARP1 at 9.2 uM; set-up: scale not given: the % may be the effect or the level left

## Nc1ncnc2c1ncn2[C@@H]1O[C@H](C(=O)N2CCN(CC(=O)Nc3cccc4c3CNC4=O)CC2)[C@@H](O)[C@H]1O
Rattus norvegicus [1]
  Activity: 57%
Rattus norvegicus [2]
  Activity: 35%

## CNCc1ccc(-c2[nH]c3cc(F)cc4c3c2CCNC4=O)cc1 [RUCAPARIB]
Homo sapiens
  MTD: 200 mg/m2
[3]
  Drug uptake: 11%
[4]
  half-life: 9.5 h

## Cc1nc2c(O)cccc2c(=O)[nH]1
L1210
  Activity: 90%

## O=c1[nH]c(CCCN2CC=C(c3ccc(F)cc3)CC2)nc2c(Cl)cccc12
[5]
  IC50: 500 nM

## CN(C)Cc1ccc(-c2cc3cccc4c3n2CCNC4=O)cc1
LoVo
  PF50: 3.8

## CN(C)Cc1ccc(-c2nc3cccc4c3n2CCNC4=O)cc1
LoVo
  PF50: 5.5

## OC[C@H]1O[C@@H](n2cnc3c(O)ncnc32)[C@H](O)[C@@H]1O [INOSINE]
[6]
  half-life: 7.5 h

## O=c1[nH]cc(-c2ccccc2)c2ccccc12
[7]
  IC50: 890 nM

## O=c1[nH]cnc2ccccc12 [QUINAZOLINONE]
[7]
  IC50: 15800 nM

## NC(=O)c1cccc2[nH]cnc12
[7]
  IC50: 240 nM

## O=C1NCCc2c(-c3ccc(CN4CCCC4)cc3)[nH]c3cccc1c23
LoVo
  PF50: 7.8

## CN1CCN(c2ccc3nc(O)c4ccccc4c3n2)CC1
Rattus norvegicus [8]
  Activity: 25%
Rattus norvegicus [9]
  Activity: 44%

## N#Cc1ccc(-c2cnc3cccc(C(N)=O)c3n2)cc1
[5]
  IC50: 8 nM
[10]
  Selectivity ratio: 10

## CCc1cc2cc(C(CCN3CCCCC3)Cc3ccc4c(c3)OCCO4)ccc2[nH]c1=O (centres undefined)
[7]
  IC50: 9.2 nM

## CN(C)Cc1ccc(-c2c[nH]c(=O)c3cccc(O)c23)cc1
Rattus norvegicus [11]
  Activity: 57%
Rattus norvegicus [12]
  Activity: 50%
Rattus norvegicus [13]
  Activity: 47%
In vivo
  Kp at 6 h: 0.8

## O=C1CCC(=O)N1c1cc(Cc2n[nH]c(=O)c3ccccc23)ccc1F
Liver microsomes
  CL: < 1 mL/min/g

## Cc1nc2cccc(Cl)c2c(=O)[nH]1
[14]
  Kp: 0.82

## NC(=O)c1ccc(I)c([N+](=O)[O-])c1 [INIPARIB]
[15]
  half-life: 4 min

## O=c1[nH]ccc2c(Br)cccc12
[7]
  IC50: 270 nM

## NC(=O)c1cccc(C2CO2)c1 (centres undefined)
[16]
  Activity: 88%
[7]
  IC50: 1000 nM
